Values belong to the compound of their own block, whether it stands above or below them. Non-standard residues stand in square brackets, D forms with d. Residues, ends and D or L forms follow the SMILES beside them.
Tests used:
[1] = test system: T47D; experiment: Cell viability assay (WST-8); format: cell-based, human; details: for IC50: 72 h
Text: (§1) Correlation between IC50 values was observed.

[2] = test system: BxPC-3; details: 72 h
[3] = test system: LNCaP; details: for IC50: 72 h
[4] = test system: MRC-5; details: 72 h
[5] = test system: HEK293; details: 72 h
[6] = test system: OE19; details: 72 h
[7] = test system: U937; details: 72 h
[8] = test system: COLO587; experiment: Cell viability assay (WST-8); format: cell-based
Text: as §1

[9] = test system: PE cell (pancreatic epidermal); experiment: Cell viability assay (WST-8); format: cell-based; details: 72 h
Text: as §1

[10] = test system: SN-19; experiment: Cell viability assay (WST-8); format: cell-based
Text: as §1

[11] = test system: HC cell (hepatocyte cell); experiment: Cell viability assay (WST-8); format: cell-based, human; details: 72 h
Text: as §1

[12] = test system: T47D; experiment: Annexin V and caspase 3,7 flow cytometry; format: cell-based, human; details: 10 μM, two hours
Method: T47D and PE cells were incubated with TfR-lytic chimeric peptide (10 μM) and lytic peptide (10 μM) for two hours. Annexin V (FIG. 26A) and caspase 3,7 activity (FIG. 26B) were detected in the green channel, and propidium iodide staining was detected in the red channel, and flow cytometry analysis was performed. In T47D cells treated with TfR-lytic chimeric peptide, the ratio of the right half panel showing Annexin V-positive cells and caspase 3,7-activated cells increased.

[13] = test system: PE cells (normal cells); experiment: Annexin V and caspase 3,7 flow cytometry; format: cell-based; details: 10 μM, two hours
[14] = test system: T47D breast cancer cells; experiment: Membrane permeabilization (calcein); format: cell-based, human; details: 10 μM, 0 to 15 minutes
Method: Furthermore, after addition of TfR-lytic chimeric peptide at concentration of 10 μM, the cells in calcein solution were observed after 0 minute, five minutes, 10 minutes and 15 minutes.

[15] = test system: T47D; experiment: Short-exposure killing of cancer cells (WST-8); format: cell-based, human; details: 1 to 180 minutes exposure
Method: The cells were further cultured for 72 hours.

[16] = test system: U251
[17] = test system: MDA-MB-231
[18] = test system: SK-BR-3

IC50 [1]: 6.4 µM
IC50 [2]: 12.2 µM
IC50 [3]: 8.9 µM
IC50 [6]: 7.1 µM
IC50 [7]: 3.5 µM
SMILES: CC(C)C[C@H](NC(=O)[C@H](CC(C)C)NC(=O)[C@@H](CCCCN)NC(=O)[C@@H](CCCCN)NC(=O)[C@H](CC(C)C)NC(=O)[C@@H](CC(C)C)NC(=O)[C@H](CCCCN)NC(=O)[C@H](CC(C)C)NC(=O)[C@@H](CC(C)C)NC(=O)[C@H](CC(C)C)NC(=O)[C@H](CCCCN)NC(=O)CNC(=O)CNC(=O)CNC(=O)[C@H](CCCNC(=N)N)NC(=O)[C@@H]1CCCN1C(=O)[C@@H]1CCCN1C(=O)[C@H](CC(C)C)NC(=O)[C@H](Cc1c[nH]c2ccccc12)NC(=O)[C@@H](NC(=O)[C@H](C)N)[C@@H](C)O)C(=O)N[C@@H](CCCCN)C(=O)N[C@H](CC(C)C)C(=O)N[C@@H](CC(C)C)C(=O)N[C@@H](CCCCN)C(=O)N[C@@H](CCCCN)C(=O)N[C@@H](CCCCN)C(=O)O [VEGFR2-Lytic] (H-ATWLPPRGGGKL[dL]LK[dL]L[dK][dK]LLK[dL]LKKK-OH; N-terminus and C-terminus assumed)
IC50 [4]: > 20 µM
IC50 [5]: > 20 µM

IC50 ([8]; 72 h): 6.9 µM
IC50 ratio Lytic/TfR-lytic ([8]; COLO587): 2.0
IC50 [1]: 4.8 µM
IC50 ratio Lytic/TfR-lytic ([1]; T47D): 3.8
IC50 ([16]; 72 h): 6.8 µM
IC50 ratio Lytic/TfR-lytic ([16]; U251): 2.8
IC50 [3]: 6.2 µM
IC50 ratio Lytic/TfR-lytic ([3]; LNCaP): 2.7
IC50 ([17]; 72 h): 6.7 µM
IC50 ratio Lytic/TfR-lytic ([17]; MDA-MB-231): 4.4
IC50 ([18]; 72 h): 5.3 µM
IC50 ratio Lytic/TfR-lytic ([18]; SK-BR-3): 5.0
SMILES: CSCC[C@H](NC(=O)[C@@H]1CCCN1C(=O)[C@@H]1CCCN1C(=O)[C@H](CCCNC(=N)N)NC(=O)[C@H](Cc1c[nH]cn1)NC(=O)[C@@H](N)[C@@H](C)O)C(=O)N[C@@H](Cc1c[nH]c2ccccc12)C(=O)N[C@@H](CO)C(=O)N1CCC[C@H]1C(=O)N[C@H](C(=O)N[C@@H](Cc1c[nH]c2ccccc12)C(=O)N1CCC[C@H]1C(=O)NCC(=O)NCC(=O)NCC(=O)N[C@@H](CCCCN)C(=O)N[C@@H](CC(C)C)C(=O)N[C@H](CC(C)C)C(=O)N[C@@H](CC(C)C)C(=O)N[C@@H](CCCCN)C(=O)N[C@H](CC(C)C)C(=O)N[C@@H](CC(C)C)C(=O)N[C@H](CCCCN)C(=O)N[C@H](CCCCN)C(=O)N[C@@H](CC(C)C)C(=O)N[C@@H](CC(C)C)C(=O)N[C@@H](CCCCN)C(=O)N[C@H](CC(C)C)C(=O)N[C@@H](CC(C)C)C(=O)N[C@@H](CCCCN)C(=O)N[C@@H](CCCCN)C(=O)N[C@@H](CCCCN)C(=O)O)C(C)C [TfR-lytic peptide] (H-THRPPMWSPVWPGGGKL[dL]LK[dL]L[dK][dK]LLK[dL]LKKK-OH; N-terminus and C-terminus assumed)
IC50 [9]: > 20 µM
IC50 ([10]; 72 h): 8.2 µM
IC50 ratio Lytic/TfR-lytic ([10]; SN-19): 3.1
IC50 [11]: > 20 µM
ratio of Annexin V-positive cells and caspase 3,7-activated cells [12]: increased
percentage of Annexin V-positive cells and caspase 3,7-activated cells [13]: did not increase
membrane permeation [14]: permeated the membrane was observed
rapid killing of cancer cells [15]: rapidly kill T47D cancer cells
IC50 [4]: > 20 µM

Source: patent publication US8940863B2, “Selective anticancer chimeric peptides which bind neuropilin receptor” (Stella Pharma Corporation, priority 2008, dated 2015)
